Here are results for 7 compounds from PubChem BioAssay (NCI).

Test systems include HOP-62 NSCLC; HCT-116 colon; HCT-15 colon; HOP-92 NSCLC; HCC-2998 colon; MOLT-4 leukemia; SF-268 CNS; U251 CNS; OVCAR-8 ovarian; SK-MEL-5 melanoma.
Common to all, as to assay: DTP human tumour cell line panel, 48 h

Where “and” joins values, the source holds several entries; their conditions need not be identical. Identical values can stand only once.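 In this assay, cells in 96-well plates receive the compound at five concentrations for 48 hours. Endpoints are linearly interpolated between the surrounding concentrations. GI50 marks 50% less growth. The concentration for full growth arrest is given as TGI.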

Broadly, the GI50 is the concentration at which growth is held to half of that of the control. One may read the TGI as the concentration giving total growth inhibition. Read a high TGI as lower sensitivity of the cells. Take `COc1ccc([C@H]2c3[nH]c4ccccc4c3C[C@H]3C(=O)N(CCCCCCC(=O)NO)CC(=O)N23)cc1`: the GI50 in the experiment on HOP-62 NSCLC is 2.45 µM; in the experiment on HCT-116 colon it was 1.07 µM; in the experiment with HCT-15 colon it was 9.05 µM; with HOP-92 NSCLC it was 1.38 µM; in the experiment with HCC-2998 colon, 1.15 µM; with MOLT-4 leukemia, 1.11 µM. For the same compound, the GI50 is 7.7 µM in the experiment with SF-268 CNS, 1.61 µM in the experiment on U251 CNS, 1.33 µM in the experiment on OVCAR-8 ovarian and 1.89 µM with SK-MEL-5 melanoma. Further, the total growth inhibition concentration (TGI) in the experiment on HOP-62 NSCLC is more than 33.3 µM; in the experiment with HCT-116 colon it was more than 33.3 µM; with HCT-15 colon it was more than 33.3 µM; with HOP-92 NSCLC, 24.2 µM; in the experiment on HCC-2998 colon, 5.34 µM; in the experiment with MOLT-4 leukemia, more than 33.3 µM. Besides, the TGI is more than 33.3 µM with SF-268 CNS, more than 33.3 µM with U251 CNS, more than 33.3 µM in the experiment with OVCAR-8 ovarian and 6.89 µM in the experiment on SK-MEL-5 melanoma.

Take `COC(=O)c1sc(=S)c2sc(C(=O)OC)c(C(=O)OC)c2c1C(=O)OC`: the GI50 was 59.7 µM with HOP-62 NSCLC; 45 µM in the experiment on HCT-116 colon; 38 µM with HCT-15 colon; 24.3 µM in the experiment with HOP-92 NSCLC; 20.5 µM in the experiment on HCC-2998 colon; 36.9 µM in the experiment on MOLT-4 leukemia. Further, the GI50 with SF-268 CNS was 58.8 µM; in the experiment with U251 CNS it was 50.5 µM; with OVCAR-8 ovarian, 57.7 µM; with SK-MEL-5 melanoma it was 39.1 µM. The TGI was more than 100 µM in the experiment with HOP-62 NSCLC; more than 100 µM in the experiment with HCT-116 colon; more than 100 µM with HCT-15 colon; more than 100 µM in the experiment with HOP-92 NSCLC; 76.1 µM in the experiment on HCC-2998 colon; more than 100 µM with MOLT-4 leukemia. Besides, the TGI in the experiment on SF-268 CNS, in the experiment on U251 CNS, with OVCAR-8 ovarian and in the experiment with SK-MEL-5 melanoma was more than 100 µM in each case.

Take `Cn1cc(C2=C(c3cccc([N+](=O)[O-])c3)C(=O)NC2=O)c2ccccc21`: the GI50 in the experiment with HOP-62 NSCLC was 7.47 µM; in the experiment on HCT-116 colon it was 5.5 µM; with HCT-15 colon, 7.97 µM; in the experiment on HOP-92 NSCLC it was 4.22 µM; in the experiment with HCC-2998 colon, 14.5 µM; with MOLT-4 leukemia, 7.18 µM. Also, the GI50 was 11.8 µM with SF-268 CNS, 5.9 µM with U251 CNS, 6.81 µM in the experiment with OVCAR-8 ovarian and 3.63 µM in the experiment with SK-MEL-5 melanoma. For the same compound, the TGI in the experiment on HOP-62 NSCLC is more than 25 µM; with HCT-116 colon it was more than 25 µM; with HCT-15 colon, more than 25 µM; in the experiment on HOP-92 NSCLC, more than 20.6 µM; with HCC-2998 colon, more than 25 µM; with MOLT-4 leukemia, more than 22.8 µM. Further, the total growth inhibition concentration (TGI) in the experiment with SF-268 CNS was more than 25 µM; in the experiment with U251 CNS, more than 25 µM; with OVCAR-8 ovarian, more than 22.4 µM; with SK-MEL-5 melanoma, 8.48 µM.

As for `NCC[PH+](c1ccccc1)c1ccccc1.NCC[PH+](c1ccccc1)c1ccccc1.[Cl-].[Pt+4]`, the GI50 is more than 100 µM in the experiment with HOP-62 NSCLC; 46.1 µM with HCT-116 colon; more than 100 µM in the experiment on HCT-15 colon; more than 100 µM in the experiment with HOP-92 NSCLC; more than 100 µM in the experiment with HCC-2998 colon; more than 51.3 µM in the experiment on MOLT-4 leukemia. The GI50 was more than 100 µM in the experiment with SF-268 CNS, 39.3 µM in the experiment with U251 CNS, more than 100 µM with OVCAR-8 ovarian and more than 100 µM in the experiment with SK-MEL-5 melanoma. The TGI in the experiment on HOP-62 NSCLC, with HCT-116 colon, in the experiment with HCT-15 colon, in the experiment on HOP-92 NSCLC, in the experiment with HCC-2998 colon and in the experiment on MOLT-4 leukemia was more than 100 µM throughout. Also, the TGI with SF-268 CNS, with U251 CNS, in the experiment with OVCAR-8 ovarian and in the experiment on SK-MEL-5 melanoma was more than 100 µM each time.

Take `O=c1ccc(=O)c2c1c1[nH]c3ccccc3c1c1c(=O)c3ccccc3c(=O)c21`: the TGI with HOP-62 NSCLC was more than 10 µM; in the experiment with HCT-116 colon, more than 10 µM; with HCT-15 colon, more than 10 µM; in the experiment on HOP-92 NSCLC it was more than 10 µM; in the experiment on HCC-2998 colon, more than 10 µM; in the experiment on MOLT-4 leukemia it was 7.55 µM. In addition, the TGI in the experiment on SF-268 CNS, with U251 CNS, with OVCAR-8 ovarian and in the experiment with SK-MEL-5 melanoma was more than 10 µM in each case.

Turning to `CN(C)CC(=O)N1CCc2c([nH]c3ccccc23)C1c1cccnc1` (configuration not stated), the total growth inhibition concentration (TGI) with HOP-62 NSCLC, in the experiment on HCT-116 colon, with HCT-15 colon, with HOP-92 NSCLC, in the experiment on HCC-2998 colon and in the experiment with MOLT-4 leukemia was more than 100 µM throughout. The total growth inhibition concentration (TGI) with SF-268 CNS, in the experiment on U251 CNS, in the experiment with OVCAR-8 ovarian and in the experiment with SK-MEL-5 melanoma was more than 100 µM throughout.

For `CC1(O)CC2C(CC1SCc1ccccc1)C2(C)C` (configuration not stated), the TGI was 57.9 µM and 30.5 µM with HOP-62 NSCLC; 47.9 µM and 30.2 µM with HCT-116 colon; 65 µM and 30.6 µM in the experiment with HCT-15 colon; 66.4 µM and 14.4 µM in the experiment on HOP-92 NSCLC; 50 µM and > 100 µM with HCC-2998 colon; 25.1 µM and 47.7 µM in the experiment with MOLT-4 leukemia. Further, the concentration for total growth inhibition (TGI) with SF-268 CNS was 54.9 µM and 42 µM; in the experiment with U251 CNS, 44.7 µM and 29.7 µM; in the experiment with OVCAR-8 ovarian, > 100 µM and 30.9 µM; in the experiment with SK-MEL-5 melanoma, 40.4 µM and 25.8 µM. Besides, the GI50 with HCC-2998 colon is 24.1 µM and > 100 µM; in the experiment on MOLT-4 leukemia it was 4.09 µM and 18.4 µM.
